Experimental data reported in patent US11187660B2, “Fluorescent probes for monitoring voltage by photo-induced electron transfer” (The Regents of the University of California, priority 2011, dated 2021).
“Also recorded” adds a separate entry of the source.

Columns and labels:
HEK cells = experiment: Speed of optical response to voltage steps in HEK cells; assay type: cell-based, human; details: 100 mV step from holding potential −60 mV
Text: Membrane voltage of cells loaded with VF1.4.Cl or VF2.4.Cl were controlled by making tight-seal whole-cell recordings. Cells were maintained at a holding potential of −60 mV and stepped for 50 ms to various depolarizing and hyperpolarizing potentials (FIG. 5A), while simultaneously acquiring epifluorescence images. For both sensors, depolarizing steps result in fluorescence increases while hyperpolarizing steps decrease fluorescence intensity, in keeping with our proposed mechanism. […] For di-4-ANEPPS, typical values are 0.08-0.12% per mV. […] To assess the speed of the optical response to voltage, VF2.4.Cl signals were monitored in response to voltage steps of 100 mV from a holding potential of −60 mV.
We characterized the voltage sensitivity of all three indicators by making tight-seal whole-cell recordings of HEK293 cells stained with the VF sensors. […] For all three dyes, depolarizing steps produced fluorescence increases, whereas hyperpolarizing steps produced fluorescence decreases, in keeping with the proposed PeT mechanism. The fluorescence response is linear over the range of −100 mV to +100 mV (FIG. 9C), with voltage sensitivities ΔF/F per 100 mV of 20±1% for VF1.4.Cl and 25±1% for VF2.4.Cl. […]

leech Retzius cells = experiment: Capacitative loading in leech Retzius cells; assay type: cell-based, Hirudo medicinalis; details: hyperpolarizing current injection, dye at three times the working concentration
Text: We injected hyperpolarizing current into the Retzius cells of leech ganglia preparations and compared the time constants for these voltage steps in ganglia under different dye loading conditions. The ganglia were stained with dye at three times the working concentration [either VF2.1.Cl or diSBA-C4-(3) (14)] and compared with unloaded cells.
Isolated midbody ganglia (Ganglia 8-16) were dissected from Hirudo medicinalis and the ventral side was desheathed using standard procedures. The voltage sensitive dye was combined with HEPES saline down to the desired concentration (100-300 nM), and 1.5 μL of a 20% (w/v) solution of Pluronic F-127 in DMSO. The dye was then continuously pumped over the ganglion to help with penetration into the cell membranes for 20-30 minutes. […]
Electrophysiological measurements were made with paired electrode recordings with resistances in the range of 20-40 MΩm. Electrode 1 acted as the recording electrode, which constantly monitored membrane potential, and electrode 2 acted as the current injecting electrode. […] The capacitance C was calculated with the formula C=tau*I/ΔV, where I=1 nA and the hyperpolarization ΔV was 15-18 mV. Tau was measured two ways: 1) the time required for the normalized curve to reach (1-1/e); 2) the time constant of the best fit exponential or sum of exponentials. […] Spontaneous Retzius cell activity was measured with a single electrode.

leech Retzius cell = experiment: Optical recording of spontaneous activity in leech ganglia; assay type: cell-based, Hirudo medicinalis; details: sampling at 50 Hz, stained 15 min
Method: A more stringent test of the usefulness of the PeT-based VSD is to determine whether it can accurately measure subthreshold activity in heterogeneous preparations. For this test we used leech ganglia, because their neurons have been well studied using both electrophysiological and other VSD recordings (14, 33-35). We isolated a midbody ganglion and stained it with VF2.1.Cl for 15 min at 22° C. (FIG. 13C). Insertion of a sharp electrode (25 MΩ) into a Retzius cell to enabled recording of its spontaneous activity while simultaneously recording the fluorescence signals from the same cell. […] The optically recorded spikes are truncated as a result of undersampling the optical signal; sampling at a higher rate (722 Hz) fully resolved the action potentials, but introduced a significant amount of sampling noise (FIG. 14). Although the action potential was subsampled at just 50 Hz, there is still a reliable transient in the optical trace that indicates the time when an action potential occurs, which is often what is needed.
Isolated midbody ganglia (Ganglia 8-16) were dissected from Hirudo medicinalis and the ventral side was desheathed using standard procedures. […]
Imaging was done with a Cascade 128+ EMCCD camera (Photometrics). […] The fluorescence illumination was from an LED that has its peak excitation wave-length in the excitation range for FITC. […] The data is stored in Matlab-readable files.

Row | Structure (SMILES) | τoff, optical (HEK cells) | τon, optical (HEK cells) | capacitative load on the membrane (leech Retzius cells) | optical recording versus electrical recording of spontaneous activity (leech Retzius cell)
1 | CCCCN(CCCC)c1ccc(/C=C/c2ccc(/C=C/c3ccc(-c4c5cc(Cl)c(=O)cc-5oc5cc(O)c(Cl)cc45)c(S(=O)(=O)O)c3)cc2)cc1 [VF2.4.Cl, 5-(4-(4-(dibutylamino)styryl)styryl)-2-(2,7-dichloro-6-hydroxy-3-oxo-3H-xanthen-9-yl)benzenesulfonic acid] | 147±19 μs | 138±14 μs |  | 
2 | CN(C)c1ccc(/C=C/c2ccc(/C=C/c3ccc(-c4c5cc(Cl)c(=O)cc-5oc5cc(O)c(Cl)cc45)c(S(=O)(=O)O)c3)cc2)cc1 [VF2.1.Cl, 5-(4-(4-(dimethyllamino)styryl)styryl)-2-(2,7-dichloro-6-hydroxy-3-oxo-3H-xanthen-9-yl)benzenesulfonic acid] |  |  | no difference from control cells | near-perfect matching of the subthreshold membrane potential; also recorded: faithfully followed the subthreshold fluctuations
